Reference: PubChem BioAssay AID248 (DTP/NCI, 2004)
Values joined by “and” are separate entries in the source; they are usually repeats but may differ in a detail not shown here. Identical values can stand only once. Toxic doses and inconclusive results are not listed. Cut-off read from the data, not from the text of the source: active = T/C of 150% or more; inactive = T/C below 125%.

System: L1210 leukemia ip in BDF1 mice, survival T/C
Test: NCI In Vivo Anticancer Drug Screen. Data for tumor model L1210 Leukemia (intraperitoneal) in B6D2F1 (BDF1) mice
Settings: endpoint: mean survival time, higher = longer survival
How it was run: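 In this screen, tumor-bearing mice given compound are compared to those given vehicle, and their survival values are reported as a treated-to-control quotient.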

[1] = dose: 50.0 mg/kg/injection, schedule: Q04DX002 (ip), vehicle: saline
[2] = dose: 100.0 mg/kg/injection, schedule: Q04DX002 (ip), vehicle: saline
[3] = dose: 100.0 mg/kg/injection, schedule: Q01DX001 (ip), vehicle: carboxymethylcellulose (CMC)
[4] = dose: 200.0 mg/kg/injection, schedule: Q01DX001 (ip), vehicle: carboxymethylcellulose (CMC)
[5] = dose: 100.0 mg/kg/injection, schedule: Q01DX001 (ip), vehicle: saline
[6] = dose: 200.0 mg/kg/injection, schedule: Q01DX001 (ip), vehicle: saline
[7] = dose: 400.0 mg/kg/injection, schedule: Q01DX001 (ip), vehicle: saline
[8] = dose: 25.0 mg/kg/injection, schedule: Q01DX009 (ip), vehicle: saline with Tween-80
[9] = dose: 100.0 mg/kg/injection, schedule: Q04DX003 (ip), vehicle: saline with Tween-80
[10] = dose: 100.0 mg/kg/injection, schedule: Q04DX002 (ip), vehicle: Klucel (hydroxypropylcellulose) (HPC)
[11] = dose: 200.0 mg/kg/injection, schedule: Q04DX002 (ip), vehicle: Klucel (hydroxypropylcellulose) (HPC)
[12] = dose: 400.0 mg/kg/injection, schedule: Q04DX002 (ip), vehicle: Klucel (hydroxypropylcellulose) (HPC)
[13] = dose: 100.0 mg/kg/injection, schedule: Q01DX009 (ip), vehicle: Klucel (hydroxypropylcellulose) (HPC)
[14] = dose: 200.0 mg/kg/injection, schedule: Q01DX009 (ip), vehicle: Klucel (hydroxypropylcellulose) (HPC)
[15] = dose: 400.0 mg/kg/injection, schedule: Q01DX009 (ip), vehicle: Klucel (hydroxypropylcellulose) (HPC)

Measured: T/C

C=CC[N+](CC=C)(CC=C)CCC[N+](CC=C)(CC=C)CC=C
inactive: dose: 12.5 mg/kg/injection, schedule: Q01DX009 (ip), vehicle: water 98 % of control | dose: 25.0 mg/kg/injection, schedule: Q01DX009 (ip), vehicle: water 98 % of control and 101 % of control | dose: 50.0 mg/kg/injection, schedule: Q01DX009 (ip), vehicle: water 102 % of control and 108 % of control

CC1(C)OC2OCC(O)C2O1 (stereo not given)
inactive: [1] 100 % of control | [2] 104 % of control | dose: 200.0 mg/kg/injection, schedule: Q04DX002 (ip), vehicle: saline 110 % of control

CC(C)(C)C1CCC2(CC1)CC(=O)N(N1CCCCCC1)C(=O)C2
inactive: dose: 50.0 mg/kg/injection, schedule: Q01DX001 (ip), vehicle: carboxymethylcellulose (CMC) 95 % of control | [3] 101 % of control | [4] 95 % of control | dose: 400.0 mg/kg/injection, schedule: Q01DX001 (ip), vehicle: carboxymethylcellulose (CMC) 104 % of control

C#CCn1cnc2c(Cl)ncnc21
inactive: [5] 117 % of control | [6] 97 % of control | [7] 103 % of control

COc1ccc(OC(C)=O)c(C=O)c1
inactive: [3] 100 % of control | [4] 103 % of control

N#CCn1c(C(F)(F)F)nc2nc(Cl)c(Cl)nc21
inactive: [8] 98 % of control | dose: 50.0 mg/kg/injection, schedule: Q01DX009 (ip), vehicle: saline with Tween-80 98 % of control | dose: 100.0 mg/kg/injection, schedule: Q01DX009 (ip), vehicle: saline with Tween-80 96 % of control | [9] 98 % of control

CC(=O)OC1CCC2(C)C(=CCC3C2CCC2(C)c4c(c(-c5ccccc5)nn4-c4ccccc4)CC32)C1 (stereo not given)
inactive: [10] 98 % of control | [11] 90 % of control | [12] 95 % of control

CCCCN(CCCC)CC(O)c1ccc2cc(Cl)cc(Cl)c2n1 (stereo not given)
inactive: dose: 6.25 mg/kg/injection, schedule: Q01DX009 (ip), vehicle: saline with Tween-80 94 % of control | dose: 6.25 mg/kg/injection, schedule: Q04DX003 (ip), vehicle: saline with Tween-80 98 % of control | dose: 12.5 mg/kg/injection, schedule: Q01DX009 (ip), vehicle: saline with Tween-80 98 % of control | dose: 12.5 mg/kg/injection, schedule: Q04DX003 (ip), vehicle: saline with Tween-80 95 % of control | [8] 98 % of control | dose: 25.0 mg/kg/injection, schedule: Q04DX003 (ip), vehicle: saline with Tween-80 95 % of control

CC(OC(=O)Nc1ccc(S(=O)(=O)NC2CCCCC2)cc1)(c1ccccc1)C1CCCCC1 (stereo not given)
inactive: [5] 105 % of control | [6] 105 % of control | [7] 100 % of control

Cc1ccc(C)c(NC(=O)N(Cc2ccccc2)Cc2ccccc2)c1
inactive: [13] 94 % of control | [14] 91 % of control | [15] 96 % of control

O=C(O)c1c(Br)c(Br)c(Br)c(Br)c1C(=O)Nc1ccccc1C(F)(F)F
inactive: [13] 101 % of control | [14] 93 % of control

CCOC(CN(Cc1ccccc1)CC(OCC)OCC)OCC
inactive: dose: 50.0 mg/kg/injection, schedule: Q04DX002 (ip), vehicle: saline with Tween-80 100 % of control | dose: 100.0 mg/kg/injection, schedule: Q04DX002 (ip), vehicle: saline with Tween-80 97 % of control and 100 % of control | dose: 200.0 mg/kg/injection, schedule: Q04DX002 (ip), vehicle: saline with Tween-80 92 % of control | dose: 400.0 mg/kg/injection, schedule: Q04DX002 (ip), vehicle: saline with Tween-80 91 % of control

CN1CCN(C(=S)Nc2ccccc2)CC1
inactive: dose: 25.0 mg/kg/injection, schedule: Q01DX001 (ip), vehicle: Klucel (hydroxypropylcellulose) (HPC) 98 % of control | dose: 50.0 mg/kg/injection, schedule: Q01DX001 (ip), vehicle: Klucel (hydroxypropylcellulose) (HPC) 106 % of control | dose: 100.0 mg/kg/injection, schedule: Q01DX001 (ip), vehicle: Klucel (hydroxypropylcellulose) (HPC) 97 % of control and 107 % of control

CCN(CC)CCN(C)C(=O)C(=O)c1ccccc1
inactive: dose: 75.0 mg/kg/injection, schedule: Q01DX001 (ip), vehicle: saline 98 % of control | dose: 150.0 mg/kg/injection, schedule: Q01DX001 (ip), vehicle: saline 101 % of control

Cc1cc(=O)[nH]c2nc(N)ccc12
inactive: dose: 50.0 mg/kg/injection, schedule: Q01DX001 (ip), vehicle: saline 101 % of control | [5] 93 % of control | [6] 93 % of control | [7] 101 % of control

CC(C)NC(=O)C1C2C=CC(C2)C1C(=O)NC(C)C (stereo not given)
inactive: [9] 100 % of control | dose: 200.0 mg/kg/injection, schedule: Q04DX003 (ip), vehicle: saline with Tween-80 100 % of control | dose: 400.0 mg/kg/injection, schedule: Q04DX003 (ip), vehicle: saline with Tween-80 91 % of control

CC(=O)[C@H]1CC[C@H]2[C@@H]3C[C@H](C)C4=CC(=O)CC[C@]4(C)[C@H]3[C@@H](O)C[C@]12C
inactive: dose: 50.0 mg/kg/injection, schedule: Q01DX009 (ip), vehicle: saline 100 % of control | dose: 50.0 mg/kg/injection, schedule: Q01DX Z (sc), vehicle: steriod suspending solution 106 % of control | dose: 50.0 mg/kg/injection, schedule: Q04DX003 (ip), vehicle: saline 95 % of control | [5] 93 % of control | dose: 100.0 mg/kg/injection, schedule: Q01DX009 (ip), vehicle: saline 94 % of control | dose: 100.0 mg/kg/injection, schedule: Q01DX Z (sc), vehicle: steriod suspending solution 103 % of control | dose: 100.0 mg/kg/injection, schedule: Q04DX003 (ip), vehicle: saline 103 % of control | [6] 104 % of control | dose: 200.0 mg/kg/injection, schedule: Q01DX009 (ip), vehicle: saline 102 % of control | dose: 200.0 mg/kg/injection, schedule: Q01DX Z (sc), vehicle: steriod suspending solution 103 % of control | dose: 200.0 mg/kg/injection, schedule: Q04DX003 (ip), vehicle: saline 102 % of control | dose: 400.0 mg/kg/injection, schedule: Q01DX Z (sc), vehicle: steriod suspending solution 98 % of control

CS(=O)(=O)CCS(=O)(=O)c1cccs1
inactive: dose: 50.0 mg/kg/injection, schedule: Q01DX009 (ip), vehicle: Klucel (hydroxypropylcellulose) (HPC) 103 % of control | [13] 102 % of control | dose: 100.0 mg/kg/injection, schedule: Q04DX003 (ip), vehicle: Klucel (hydroxypropylcellulose) (HPC) 110 % of control | dose: 200.0 mg/kg/injection, schedule: Q04DX003 (ip), vehicle: Klucel (hydroxypropylcellulose) (HPC) 112 % of control | dose: 400.0 mg/kg/injection, schedule: Q04DX003 (ip), vehicle: Klucel (hydroxypropylcellulose) (HPC) 111 % of control

CC1=COC(C)(C2NC(C)CC(C)(C)N2)CC1 (stereo not given)
inactive: dose: 44.0 mg/kg/injection, schedule: Q01DX Z (ip), vehicle: methylcellulose (MC) 100 % of control | dose: 100.0 mg/kg/injection, schedule: Q01DX Z (ip), vehicle: methylcellulose (MC) 95 % of control

NNC(=O)C(Cc1cnc[nH]1)NC(=O)OCc1ccccc1 (stereo not given)
inactive: [10] 100 % of control | [11] 90 % of control | [12] 107 % of control

COc1ccc(CCc2ccc(OC)cc2)cc1
inactive: dose: 25.0 mg/kg/injection, schedule: Q04DX002 (ip), vehicle: saline 106 % of control | [1] 117 % of control | [2] 109 % of control

O=C(O)c1ccccc1C(=O)c1ccc(Cl)cc1
inactive: [13] 100 % of control | [14] 86 % of control | [15] 100 % of control
